Assay [1] in a line: Induction of H2O2-induced CO release in PBS buffer at pH 7.4 at 100 uM by HPLC analysis. It counts as functional.
The nature of assay [2]: Induction of ONOO-induced CO release in PBS buffer at pH 7.4 at 100 uM by HPLC analysis. It counts as functional.
Assay [3] can be described thus: Induction of ONOO-induced CO release in PBS buffer at pH 7.4 at 100 uM in presence of PdCl2 by fluorescence based analysis. It counts as functional.
Assay [4] relates to Mus musculus. The experiment in a line: Anti-parkinson activity in MPTP-induced male C57BL/6J mouse model assessed as increase in total distance traveled at 6 mg/kg, iv pretreated with compound for 1 day followed by MPTP-induction for 2 to 9 days and measured after 10 days by open field test. It counts as functional, organism-based. The settings on record: time 10.0 day.
The subject of assay [5] is Mus musculus. Briefly: Anti-parkinson activity in MPTP-induced male C57BL/6J mouse model assessed as increase in latency period at 6 mg/kg, iv pretreated with compound for 1 to 11 days followed by MPTP-induction for 1 to 5 days and measured on day 24 by rotarod test. The format is functional, organism-based. The following applies: time 24.0 day. A general note: The rotarod test checks motor coordination on a turning rod.

In assay [6] the test system is Mus musculus. The experiment in a line: Anti-parkinson activity in MPTP-induced male C57BL/6J mouse model assessed as improvement in hindlimb clasping reflex at 6 mg/kg, iv pretreated with compound for 1 to 11 days followed by MPTP-induction for 1 to 5 days and measured on day 24 by hindlimb clasping test. It counts as functional, organism-based. The settings on record: time 24.0 day.

In assay [7] the test system is Mus musculus. The experiment in a line: Anti-parkinson activity in MPTP-induced male C57BL/6J mouse model assessed as increase in SLC7A11 expression in midbrain at 6 mg/kg, iv pretreated with compound for 1 to 11 days followed by MPTP-induction for 1 to 5 days and measured on day 26 by Western blot analysis. The settings on record: time 26.0 day. The format is functional, organism-based.

Assay [8] relates to Mus musculus. Briefly: Anti-parkinson activity in MPTP-induced male C57BL/6J mouse model assessed as increase in distance traveled in open arms at 6 mg/kg, iv pretreated with compound for 1 day followed by MPTP-induction for 2 to 9 days and measured after 10 days by elevated plus maze test. It counts as functional, organism-based. The settings on record: time 10.0 day.
Assay [9] has as its system SH-SY5Y. The experiment in a line: Inhibition of ferroptosis in MPP+-induced human SH-SY5Y cells assessed as induction of CO release by measuring increase in fluorescent intensity at 10 uM pretreated with MPP+ for 20 hrs followed by compound treatment for 30 mins by COP490 probe based confocal microscopic analysis. The format is functional, cell-based.
For assay [10], the system named is Mus musculus. Briefly: Anti-parkinson activity in MPTP-induced male C57BL/6J mouse model assessed as increase in frequency of open arms entries at 6 mg/kg, iv pretreated with compound for 1 day followed by MPTP-induction for 2 to 9 days and measured after 10 days by elevated plus maze test. The settings on record: time 10.0 day. It counts as functional, organism-based.

Assay [11] concerns Mus musculus. Briefly: Anti-parkinson activity in MPTP-induced male C57BL/6J mouse model assessed as increase in TH level in substantia nigra pars compacta at 6 mg/kg, iv pretreated with compound for 1 to 11 days followed by MPTP-induction for 1 to 5 days and measured on day 26 by immunofluorescence analysis. The following applies: time 26.0 day. It counts as functional, organism-based.

Assay [12] in a line: Induction of H2O2-induced CO release in PBS buffer at pH 7.4 assessed as increase in fluorescence intensity at 100 uM incubated for 30 min by gas detector analysis. It counts as functional.
Assay [13] has as its system Mus musculus. Briefly: Anti-parkinson activity in MPTP-induced male C57BL/6J mouse model assessed as reduction in TFRC level in midbrain at 6 mg/kg, iv pretreated with compound for 1 to 11 days followed by MPTP-induction for 1 to 5 days and measured on day 21. It counts as functional, organism-based. The settings on record: time 21.0 day.
For assay [14], the system named is Mus musculus. Briefly: Anti-parkinson activity in MPTP-induced male C57BL/6J mouse model assessed as increase in GPX4 expression in substantia nigra pars compacta at 6 mg/kg, iv pretreated with compound for 1 to 11 days followed by MPTP-induction for 1 to 5 days and measured on day 26 by immunostaining based analysis. It counts as functional, organism-based. The following applies: time 26.0 day.

For assay [15], the system named is SH-SY5Y. Briefly: Inhibition of ferroptosis in MPP+-induced human SH-SY5Y cells assessed as decrease in intracellular Fe2+ release by measuring fluorescence intensity at 10 uM pretreated with MPP+ for 20 hrs followed by compound treatment for 2 hrs by FerroOrange probe based confocal microscopic analysis. The format is functional, cell-based.
Assay [16] has as its system Mus musculus. Briefly: Anti-parkinson activity in MPTP-induced male C57BL/6J mouse model assessed as reduction in DMT1 level in midbrain at 6 mg/kg, iv pretreated with compound for 1 to 11 days followed by MPTP-induction for 1 to 5 days and measured on day 21. The following applies: time 21.0 day. The format is functional, organism-based.
Assay [17] relates to Mus musculus. Briefly: Anti-parkinson activity in MPTP-induced male C57BL/6J mouse model assessed as reduction in 4-HNE level in midbrain at 6 mg/kg, iv pretreated with compound for 1 to 11 days followed by MPTP-induction for 1 to 5 days and measured on day 26 by Western blot analysis. The settings on record: time 26.0 day. The format is functional, organism-based. (In western blotting, separated proteins are transferred to a membrane and probed.)

A short description of assay [18]: Induction of ONOO-induced CO release in PBS buffer at pH 7.4 assessed as retention time at 100 uM by gas chromatography analysis. The format is functional.
Assay [19] deals with Mus musculus. The experiment in a line: Anti-parkinson activity in MPTP-induced male C57BL/6J mouse model assessed as increase in TH expression in substantia nigra pars compacta at 6 mg/kg, iv pretreated with compound for 1 to 11 days followed by MPTP-induction for 1 to 5 days and measured on day 26 by immunostaining based analysis. The format is functional, organism-based. The following applies: time 26.0 day.

The subject of assay [20] is Mus musculus. Briefly: Anti-parkinson activity in MPTP-induced male C57BL/6J mouse model assessed as decrease in phosphorylated alpha-synuclein level in midbrain at 6 mg/kg, iv pretreated with compound for 1 to 11 days followed by MPTP-induction for 1 to 5 days and measured on day 26 by Western blot analysis. The format is functional, organism-based. The following applies: time 26.0 day.

The test system of assay [21] is SH-SY5Y. The experiment in a line: Inhibition of ferroptosis in MPP+-induced human SH-SY5Y cells assessed as reduction in DMT1 level by Western blot analysis. It counts as functional, cell-based.
Assay [22] concerns SH-SY5Y. The experiment in a line: Inhibition of ferroptosis in MPP+-induced human SH-SY5Y cells assessed as reduction in 4-HNE level by Western blot analysis. It counts as functional, cell-based.
For assay [23], the system named is Mus musculus. Briefly: Anti-parkinson activity in MPTP-induced male C57BL/6J mouse model assessed as reduction in MDA level in midbrain at 6 mg/kg, iv pretreated with compound for 1 to 11 days followed by MPTP-induction for 1 to 5 days and measured on day 26 by Western blot analysis. The format is functional, organism-based. The following applies: time 26.0 day.

Assay [24] is described as follows: Induction of ONOO-induced CO release in PBS buffer at pH 7.4 at 100 uM by gold-standard CO-myoglobin assay. The format is functional.
For assay [25], the system named is Mus musculus. Briefly: Anti-parkinson activity in MPTP-induced male C57BL/6J mouse model assessed as decrease in total alpha-synuclein level in midbrain at 6 mg/kg, iv pretreated with compound for 1 to 11 days followed by MPTP-induction for 1 to 5 days and measured on day 26 by Western blot analysis. It counts as functional, organism-based. The following applies: time 26.0 day.

Assay [26] has as its system Mus musculus. The experiment in a line: Anti-parkinson activity in MPTP-induced male C57BL/6J mouse model assessed as reduction in free ferrous iron level in midbrain at 6 mg/kg, iv pretreated with compound for 1 to 11 days followed by MPTP-induction for 1 to 5 days and measured on day 21. The format is functional, organism-based. The settings on record: time 21.0 day.

In assay [27] the test system is Mus musculus. The experiment in a line: Anti-parkinson activity in MPTP-induced male C57BL/6J mouse model assessed as decrease in descending time at 6 mg/kg, iv pretreated with compound for 1 to 11 days followed by MPTP-induction for 1 to 5 days and measured on day 24 by pole test. It counts as functional, organism-based. The settings on record: time 24.0 day.
In assay [28] the test system is SH-SY5Y. Briefly: Inhibition of ferroptosis in MPP+-induced human SH-SY5Y cells assessed as decrease in intracellular ONOO release by measuring fluorescence intensity at 10 uM pretreated with MPP+ for 20 hrs followed by compound treatment for 2 hrs by HK-green-4I probe based confocal microscopic analysis. It counts as functional, cell-based.
The subject of assay [29] is Mus musculus. Briefly: Anti-parkinson activity in MPTP-induced male C57BL/6J mouse model assessed as increase in total number of fecal pellets production at 6 mg/kg, iv pretreated with compound for 1 day followed by MPTP-induction for 2 to 9 days and measured after 10 days by elevated plus maze test. It counts as functional, organism-based. The settings on record: time 10.0 day.

The test system of assay [30] is Mus musculus. Briefly: Anti-parkinson activity in MPTP-induced male C57BL/6J mouse model assessed as decrease in […] expression in midbrain at 6 mg/kg, iv pretreated with compound for 1 to 11 days followed by MPTP-induction for 1 to 5 days and measured on day 26 by Western blot analysis. The format is functional, organism-based. The following applies: time 26.0 day.

Assay [31] concerns Mus musculus. Briefly: Anti-parkinson activity in MPTP-induced male C57BL/6J mouse model assessed as reduction in NCOA4 level in midbrain at 6 mg/kg, iv pretreated with compound for 1 to 11 days followed by MPTP-induction for 1 to 5 days and measured on day 21. It counts as functional, organism-based. The following applies: time 21.0 day.
The nature of assay [32]: Induction of H2O2-induced CO release in PBS buffer at pH 7.4 assessed as retention time at 100 uM by gas chromatography analysis. It counts as functional.
In assay [33] the test system is Mus musculus. Briefly: Anti-parkinson activity in MPTP-induced male C57BL/6J mouse model assessed as increase in GPX4 expression in midbrain at 6 mg/kg, iv pretreated with compound for 1 to 11 days followed by MPTP-induction for 1 to 5 days and measured on day 26 by Western blot analysis. It counts as functional, organism-based. The following applies: time 26.0 day.

For assay [34], the system named is Mus musculus. Briefly: Anti-parkinson activity in MPTP-induced male C57BL/6J mouse model assessed as increase in TH level in substantia nigra pars compacta at 6 mg/kg, iv pretreated with compound for 1 to 11 days followed by MPTP-induction for 1 to 5 days and measured on day 26 by Western blot analysis. The format is functional, organism-based. The following applies: time 26.0 day.

In assay [35] the test system is SH-SY5Y. Briefly: Inhibition of ferroptosis in MPP+-induced human SH-SY5Y cells assessed as increase in GPX4 level by Western blot analysis. The format is functional, cell-based.
Assay [36] has as its system Mus musculus. The experiment in a line: Anti-parkinson activity in MPTP-induced male C57BL/6J mouse model assessed as increase in mean speed at 6 mg/kg, iv pretreated with compound for 1 day followed by MPTP-induction for 2 to 9 days and measured after 10 days by open field test. It counts as functional, organism-based. The following applies: time 10.0 day.
Assay [37] is described as follows: Induction of ONOO-induced CO release in PBS buffer at pH 7.4 assessed as increase in fluorescence intensity at 100 uM incubated for 30 min by gas detector analysis. It counts as functional.

Each structure is given as a SMILES string. Active and inactive are the calls of the source. No cut-off for these calls is given here.

`CC(=O)c1cc(F)ccc1O`: the outcome in [1] and in assay [2] was Active.

Turning to `COC(=O)C(=O)OC1(C)C(=O)Oc2ccc(F)cc21` (configuration not stated), in assay [3], the Activity result is “Weak_effect”. For the same molecule, the result in the assay with Mus musculus [4], with Mus musculus [5], in the assay on Mus musculus [6], in the assay on Mus musculus [7], in the assay on Mus musculus [8] and in the assay with Mus musculus [10] was Active. Besides, the outcome (with Mus musculus [11]; in [12]; with Mus musculus [13]; with Mus musculus [14]; in the assay with Mus musculus [16]; in the assay on Mus musculus [17]) was Active. Further, the outcome (in the assay with Mus musculus [19]; in the assay with Mus musculus [20]; in the assay with Mus musculus [23]; in [24]; in the assay on Mus musculus [25]; with Mus musculus [26]) was Active. In addition, the outcome in the assay with Mus musculus [27], with Mus musculus [29], in the assay with Mus musculus [30], in the assay on Mus musculus [31], with Mus musculus [33] and in the assay on Mus musculus [34] was Active. Also, the outcome (in the assay on Mus musculus [36]; in [37]) was Active. The inhibition entry with SH-SY5Y [9], in the assay on SH-SY5Y [15], with SH-SY5Y [21], with SH-SY5Y [22], in the assay on SH-SY5Y [28] and with SH-SY5Y [35] was “Active” each time. For the same molecule, the Retention time in assay [18] is 1.96 min; in assay [32] it was 3.86 min.

Values taken from ChEMBL document CHEMBL6153106, “Synergistic Anti-Ferroptosis with a Minimalistic, Peroxide-Triggered Carbon Monoxide Donor for Parkinson's Disease” (J Med Chem, 2025).
